Source: patent publication US9334271B2, “Purine derivatives and their use in the treatment of disease” (Novarits AG, priority 2012, dated 2016)
Read-outs that look alike come from different tables or passages of the source.

How the values were obtained:
recombinant human mTOR = recombinant human mTOR (Homo sapiens (Human), UniProt P42345); test: Test 1: mTOR ATP-binding assay based on TR-FRET; details: GST-tagged truncated human mTOR, tracer-314, TR-FRET
Protocol: Test 1: mTOR ATP-Binding Assay Based on TR-FRET for Recombinant Human mTOR
2. The final volume of the assay is 10 μL and the order of addition is as follows:
50 nL of compounds dilution;
Incubated for 60 minutes at room temperature.
TR-FRET measured in Biotek Synergy2 reader at: • Excitation 340 nm/emission 665 nm • Excitation 340 nm/emission 620 nm
The following final concentrations are used:
1 nM Europium anti-GST antibody;
The following controls are used:
3. IC50 determinations may be performed as follows:
The Emission ratio is converted to percentage of inhibition for each compound concentration. IC50 values are calculated by fitting a sigmoidal dose-response curve to a plot of assay readout over compound concentration. All fits and analysis are performed with the program XLfit4 (ID Business Solutions, Guildford, UK).

[1] = test system: cellular mTOR kinase activity (phosphorylation of Thr 389 of S6K1) in TSC1-/- MEFs; test: Test 2: Cellular mTOR assay (P-P70S6K T389 Surefire); assay type: cell-based; details: Mus musculus
Protocol: Test 2: Cellular mTOR Assay
30 μl are added per well to a 384 well-plate using a Multidrop instrument (Thermo scientific), resulting in 4000 cells/well. The plates are incubated at 37° C./5% CO2 for 20 hours (to allow for settling and adherance to the surface).
Eight 3-fold serial dilutions of test-compounds (beginning at 1.8 mM) are prepared in 90% DMSO and compiled on 384 well master plates (Greiner). A pan-pPI3K/mTOR inhibitor (0.8 mM of 8-(6-methoxy-pyridin-3-yl)-3-methyl-1-(4-piperazin-1-yl-3-trifluoromethyl-phenyl)-1,3-dihydro-imidazo[4,5-c]quinolin-2-one in 90% DMSO) is added to the wells for the low control. 90% DMSO is added to the wells for the high controls. Compounds are provided as 250 nl shots (Hummingbird) in 384 well-polypropylene microplates (compound plates). 50 μl of growth medium is added to the compound plates (dilution 1:200) with the Multidrop. After shaking (1 min at 2000 rpm), 10 μl of the first dilution is then transferred to the cell plate with a Matrix Plate Mate 2×3 pipettor (final dilution 1:4). After 1 hour of treatment, medium is removed from the plate and 20 μl of Surefire lysis buffer is added per well with the Multidrop.
Cell lysates are frozen for 15 minutes, thawed with shaking and transferred to the experimental 384 well-Proxiplate (5 μl/well) for the P-P70S6K (T389) Surefire assay (Perkin Elmer #TGR70S50). The first mix is composed of the reaction buffer (containing the specific antibody), the activation buffer and the acceptor beads (40 vol, 10 vol and 1 vol respectively). 5 μl per well is added to the lysates with a Zephyr® SPE Workstation (Caliper Life Sciences) and incubated for 2 hours with shaking at room temperature. After this incubation time, the second mix of dilution buffer and donor beads (20 vol and 1 vol respectively) is added to the plate with the same instrument (2 μl/well). After 2 hours, the plate can be read with an EnVision® Multilabel Reader (Perkin Elmer). Since the beads are light sensitive, their transfer and incubation is executed in a dark room (greenlight).
The raw data is used to generate dose response curves for test compounds and IC50 values calculated therefrom.

H4 mCherry-GFP-LC3 cells = test: Test 3: Autophagy assay (mCherry-GFP-LC3 reporter, high-content imaging); assay type: cell-based, human; details: 16-18 h treatment, mCherry-positive LC3 puncta/cell
Source text: Autophagy is a catabolic pathway that degrades bulk cytosol in lysosomal compartments enabling amino acids and fatty acids to be recycled. One of the key regulators of autophagy is the mammalian target of rapamycin (mTOR), a conserved serine/threonine kinase which suppresses the initiation of the autophagic process when nutrients, growth factors and energy are available. To quantify autophagy induction by mTOR inhibitors, we use a mCherry-GFP-LC3 reporter which is amenable to retroviral delivery into mammalian cells, stable expression and analysis by fluorescence microscopy.
The amino acid sequence of the mCherry-GFP-LC3 construct is shown below (SEQ ID NO: 1). The mCherry sequence is underlined, GFP sequence is in bold and LC3A sequence is boxed.
Described hereinafter is an imaging protocol and image recognition algorithm to visualize and measure changes in the autophagic pathway.
Quantification of Autophagy Using High-Content Imaging and Analysis
• 1. Day 0: Cell plating. Subconfluent H4 mCherry-GFP-LC3 cells are harvested by trypsinization, resuspended in growth medium, and counted (H4 cells: Human neuroglioma cell line (ATCC)). A cell suspension of 66′000 cells/mL is prepared and 30 μL are added into the wells of a 384-well plate using an electronic multichannel pipette. […] The cell plates are briefly spun down and placed at 37° C. and 5% CO2. • 2. Day 1: Compound treatment. Compound dose responses are prepared in DMSO. The dose responses are then diluted 1:50 in medium. 10 ul of the diluted compound is added to 30 ul of cells, yielding a final 1:200 dilution of the original compound and final of 0.5% DMSO. Compound-treatments are performed in triplicates. The 384-well plates are placed at 37° C. and 5% CO2. Compound treatment is performed for 16-18 h (see Note 1). • 3. Day 2: Cell fixation. Cells are fixed by adding 10 μL/well 5× concentrated Mirsky's fixative supplemented with 25 μg/mL Hoechst33342. […] The 384-well plate is briefly spun down and incubated for 1 h at room temperature. Cells are then washed using a 384-well plate washer using a protocol which aspirates the volume down to 10 μL/well before dispensing 100 μL/well 1×TBS. Aspiration and dispensing steps are repeated 4 times and a final volume of 100 μL/well is left. The plate is sealed using an adhesive PCR foil. • 4. Imaging. The bottom of the plate is cleaned with 70% ethanol and then imaged using the InCell 1000 automated epifluorescence microscope. 20× magnification is used and 4 different areas (fields) are imaged per well, this typically captures a total of around 400 cells per well. Hoechst33342 images are acquired using an excitation of 360 nm (D360_40x filter), an emission of 460 nm (HQ460_40M filter) and an exposure time of 150 ms. GFP images are acquired using an excitation of 475 nm (S475_20x filter), an emission of 535 nm (HQ535_50M filter) and an exposure time of 1 s. mCherry images are acquired using an excitation of 535 nm (HQ535_50x filter), an emission of 620 nm (HQ620_60M filter) and an exposure time of 1 s. A quadruple band pass mirror is used for all images. • 5. Image analysis. The InCell Analysis software is used to analyze the images using the Multi Target Analysis algorithm. First, nuclei are detected in the Hoechst33342 image using top-hat segmentation and a minimal nuclear area of 50 μm^2. Cells are defined using a collar of 10 μm around the nuclei. Second, puncta (organelles) are identified in the mCherry image inside the cells using multi-top-hat segmentation. Third, the mask of the mCherry puncta is transferred onto the GFP image. Fourth, the GFP fluorescence intensity inside the mCherry puncta mask is measured (reference intensity). • 6. The ‘organelles’ parameter reflects mCherry-positive puncta of the mCherry-GFP-LC3 reporter and is used to calculate ‘LC3 puncta/cell’. […]

[2] = TSC1-/- MEFs, 1 hour treatment, P-P70S6K (T389), read-out: Test 2: T389 cellular assay IC50
[3] = 1 h, read-out: Test 2: T389 cellular assay IC50 (nM)

Chain of recombinant human mTOR (P42345 1360-2549): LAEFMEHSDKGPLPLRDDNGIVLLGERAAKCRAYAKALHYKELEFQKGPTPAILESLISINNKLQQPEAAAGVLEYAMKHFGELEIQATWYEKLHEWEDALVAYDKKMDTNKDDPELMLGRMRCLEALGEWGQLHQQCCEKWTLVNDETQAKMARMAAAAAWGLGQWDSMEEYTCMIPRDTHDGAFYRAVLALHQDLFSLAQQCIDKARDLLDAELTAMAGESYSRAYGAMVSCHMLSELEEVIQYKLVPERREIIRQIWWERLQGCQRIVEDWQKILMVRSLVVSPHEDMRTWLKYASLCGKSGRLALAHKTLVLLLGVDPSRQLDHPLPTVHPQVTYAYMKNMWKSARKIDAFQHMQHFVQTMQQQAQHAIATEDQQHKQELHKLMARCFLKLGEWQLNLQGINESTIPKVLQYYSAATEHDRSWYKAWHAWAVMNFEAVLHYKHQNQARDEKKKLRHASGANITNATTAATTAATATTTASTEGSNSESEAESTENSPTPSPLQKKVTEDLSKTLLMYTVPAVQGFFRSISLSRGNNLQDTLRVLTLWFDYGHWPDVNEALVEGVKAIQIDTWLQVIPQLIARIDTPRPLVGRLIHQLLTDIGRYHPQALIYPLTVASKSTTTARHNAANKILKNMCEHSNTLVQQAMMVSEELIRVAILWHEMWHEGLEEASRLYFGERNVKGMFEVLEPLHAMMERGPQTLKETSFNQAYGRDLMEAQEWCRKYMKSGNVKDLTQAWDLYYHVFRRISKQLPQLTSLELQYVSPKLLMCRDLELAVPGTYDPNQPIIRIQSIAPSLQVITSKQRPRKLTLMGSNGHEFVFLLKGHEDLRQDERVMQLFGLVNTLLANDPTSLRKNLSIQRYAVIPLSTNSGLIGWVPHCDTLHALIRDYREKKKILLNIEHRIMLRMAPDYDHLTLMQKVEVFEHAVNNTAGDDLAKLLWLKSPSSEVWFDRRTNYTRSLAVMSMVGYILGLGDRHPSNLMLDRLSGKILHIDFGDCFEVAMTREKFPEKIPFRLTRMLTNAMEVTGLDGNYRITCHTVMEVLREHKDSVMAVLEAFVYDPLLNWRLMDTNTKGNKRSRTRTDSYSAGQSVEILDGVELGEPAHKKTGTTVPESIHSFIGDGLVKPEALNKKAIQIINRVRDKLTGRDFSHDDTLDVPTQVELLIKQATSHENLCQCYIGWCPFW

| SMILES | IC50 (recombinant human mTOR) | EC50 (H4 mCherry-GFP-LC3 cells; Homo sapiens) | IC50 [1, 3] | other results |
| --- | --- | --- | --- | --- |
| C[C@@H]1COCCN1c1nc(N2CCOC[C@@H]2C)nc2[nH]c(-c3ccccn3)nc12 [Example 7, 2-((S)-3-Methyl-morpholin-4-yl)-6-((R)-3-methyl-morpholin-4-yl)-8-pyridin-2-yl-9H-purine] | 0.184 µM | 1.32 µM |  | IC50 [1, 2]: 997 nM |
| c1ccc(-c2nc3c(N4CCOCC4)nc(N4CCOCC4)nc3[nH]2)nc1 [Example 9, 2,6-Di-morpholin-4-yl-8-pyridin-2-yl-9H-purine] | 0.86 µM |  |  |  |
| CCC[C@@H]1COCCN1c1nc(N2CCOC[C@H]2C)c2nc(-c3cccc4[nH]ccc34)[nH]c2n1 [Example 12, 8-(1H-Indol-4-yl)-6-((R)-3-methyl-morpholin-4-yl)-2-((R)-3-propyl-morpholin-4-yl)-9H-purine] | 0.194 µM | 0.674 µM | 534 nM |  |
| COc1cc(-c2nc3c(N4CCOC[C@H]4C)nc(N4CCOC[C@@H]4C)nc3[nH]2)c2cc[nH]c2c1 [Example 31, 8-(6-Methoxy-1H-indol-4-yl)-2-((S)-3-methyl-morpholin-4-yl)-6-((R)-3-methyl-morpholin-4-yl)-9H-purine] | 0.028 µM | 0.145 µM | 71 nM |  |
| C[C@@H]1COCCN1c1nc(N2CCOC[C@H]2C)c2nc(-c3cc[nH]n3)[nH]c2n1 [Example 11, 2,6-Bis-((R)-3-methyl-morpholin-4-yl)-8-(1H-pyrazol-3-yl)-9H-purine] | 0.385 µM | 1.52 µM |  | IC50 [1, 2]: 190 nM |
| C[C@@H]1COCCN1c1nc(N2C3CCC2CC(O)C3)nc2[nH]c(-c3cccc4[nH]ccc34)nc12 (stereo partly drawn) [Example 13, 8-[8-(1H-Indol-4-yl)-6-((R)-3-methyl-morpholin-4-yl)-9H-purin-2-yl]-8-aza-bicyclo[3.2.1]octan-3-ol] |  | 0.935 µM |  |  |
| C[C@@H]1COCCN1c1nc(N2CCOC[C@@H]2C)nc2[nH]c(-c3cc(F)cc4[nH]ccc34)nc12 [Example 5, 8-(6-Fluoro-1H-indol-4-yl)-2-((S)-3-methyl-morpholin-4-yl)-6-((R)-3-methyl-morpholin-4-yl)-9H-purine] | 0.021 µM |  |  | IC50 [1, 2]: 122 nM |
| CC[C@@H]1COCCN1c1nc(N2CCOC[C@H]2C)c2nc(-c3cccc4[nH]ccc34)[nH]c2n1 [Example 15, 2-((R)-3-Ethyl-morpholin-4-yl)-8-(1H-indol-4-yl)-6-((R)-3-methyl-morpholin-4-yl)-9H-purine] | 0.06 µM | 0.752 µM | 194 nM |  |
| C[C@@H]1COCCN1c1nc(N2CCC(C(F)(F)F)CC2)nc2[nH]c(-c3cccc4[nH]ccc34)nc12 [Example 22, 8-(1H-Indol-4-yl)-6-((R)-3-methyl-morpholin-4-yl)-2-(4-trifluoromethyl-piperidin-1-yl)-9H-purine] | 1.51 µM | 1.68 µM | 1040 nM |  |
| C[C@@H]1COCCN1c1nc(N2CCC3COCC3C2)nc2[nH]c(-c3cccc4[nH]ccc34)nc12 (stereo partly drawn) [Example 20, 2-(Hexahydro-furo[3,4-c]pyridin-5-yl)-8-(1H-indol-4-yl)-6-((R)-3-methyl-morpholin-4-yl)-9H-purine] |  |  |  | Test 3: Autophagy EC50 (nM) (H4 mCherry-GFP-LC3 cells): n.m. |
| C[C@@H]1COCCN1c1nc(N2CCC23CCOCC3)nc2[nH]c(-c3cccc4[nH]ccc34)nc12 [Example 24, 8-(1H-Indol-4-yl)-6-((R)-3-methyl-morpholin-4-yl)-2-(7-oxa-1-aza-spiro[3.5]non-1-yl)-9H-purine] |  | 0.302 µM |  |  |
| C[C@@H]1COCCN1c1nc(N2C3CCC2CC(O)C3)nc2[nH]c(-c3cccc4[nH]ccc34)nc12 (stereo partly drawn) [Example 14, 8-[8-(1H-Indol-4-yl)-6-((R)-3-methyl-morpholin-4-yl)-9H-purin-2-yl]-8-aza-bicyclo[3.2.1]octan-3-ol] |  |  |  | EC50 (H4 mCherry-GFP-LC3 cells): 0.855 µM |
| C[C@@H]1COCCN1c1nc(N2CC3COCC3C2)nc2[nH]c(-c3cccc4[nH]ccc34)nc12 (stereo partly drawn) [Example 19, 8-(1H-Indol-4-yl)-6-((R)-3-methyl-morpholin-4-yl)-2-(tetrahydro-furo[3,4-c]pyrrol-5-yl)-9H-purine] |  | 0.727 µM | 471 nM |  |
| CC(C)[C@@H]1COCCN1c1nc(N2CCOC[C@H]2C)c2nc(-c3cccc4[nH]ccc34)[nH]c2n1 [Example 21, 8-(1H-Indol-4-yl)-2-((R)-3-isopropyl-morpholin-4-yl)-6-((R)-3-methyl-morpholin-4-yl)-9H-purine] | 0.122 µM |  | 179 nM |  |
| C[C@@H]1COCCN1c1nc(N2CC3(CCCOC3)C2)nc2[nH]c(-c3cccc4[nH]ccc34)nc12 [Example 17, 8-(1H-Indol-4-yl)-6-((R)-3-methyl-morpholin-4-yl)-2-(6-oxa-2-aza-spiro[3.5]non-2-yl)-9H-purine] |  | 0.663 µM |  |  |
| C[C@@H]1COCCN1c1nc(N2CCO[C@H](CO)C2)nc2[nH]c(-c3cccc4[nH]ccc34)nc12 [Example 25, {(S)-4-[8-(1H-Indol-4-yl)-6-((R)-3-methyl-morpholin-4-yl)-9H-purin-2-yl]-morpholin-2-yl}-methanol] | 0.38 µM |  | 1930 nM |  |
| C[C@@H]1COCCN1c1nc(N2CCO[C@@H](CO)C2)nc2[nH]c(-c3cccc4[nH]ccc34)nc12 [Example 26, {(R)-4-[8-(1H-Indol-4-yl)-6-((R)-3-methyl-morpholin-4-yl)-9H-purin-2-yl]-morpholin-2-yl}-methanol] | 0.067 µM |  | 318 nM |  |
